Data set [1] in a line: AUC (0-t) in Cynomolgus monkey at 1 mg/kg, iv measured upto 24 hrs. Details: route intravenous, dose 1 mg/kg, time <=24. It is filed as ADME, organism-based, Macaca fascicularis. The settings on record: in vivo.
In a further data set the target is Cytochrome P450 2C9 (Homo sapiens, UniProt P11712). The data set is described as follows: Inhibition of human CYP2C9 preincubated for 10 min followed by addition of NADPH and measured after 10 min by LC-MS/MS analysis. Type of data set: ADME.
Sequence of Cytochrome P450 2C9 (P11712 whole entry): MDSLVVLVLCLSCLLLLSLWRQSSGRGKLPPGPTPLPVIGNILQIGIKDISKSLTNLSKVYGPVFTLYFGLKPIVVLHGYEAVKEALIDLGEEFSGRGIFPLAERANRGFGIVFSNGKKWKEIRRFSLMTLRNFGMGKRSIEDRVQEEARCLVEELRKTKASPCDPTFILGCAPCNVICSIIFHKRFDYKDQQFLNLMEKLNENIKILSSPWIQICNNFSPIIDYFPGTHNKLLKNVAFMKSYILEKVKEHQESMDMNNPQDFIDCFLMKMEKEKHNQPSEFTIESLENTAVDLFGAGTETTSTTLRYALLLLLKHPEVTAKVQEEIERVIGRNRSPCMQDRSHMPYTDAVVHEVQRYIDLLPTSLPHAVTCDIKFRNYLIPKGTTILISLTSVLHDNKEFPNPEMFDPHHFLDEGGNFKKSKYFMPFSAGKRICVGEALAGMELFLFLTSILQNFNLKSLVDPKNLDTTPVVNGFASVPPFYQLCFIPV
In a further data set the test system is Rattus norvegicus. Briefly: Neuroprotective activity against galantamine-induced Sprague-Dawley rat model of Parkinson's disease assessed as reduction in galantamine-induced tremulous jaw movements at 0.156 to 1.25 mg/kg, ip preincubated with galantamine for 15 mins followed by compound addition and measured after 15 mins. It is filed as functional, organism-based. The note with it: dose 0.156-1.25 mg/kg.

In the next data set the test system is Mus musculus. Briefly: Neuroprotective activity against MPTP-induced C57BL/6 mouse model of Parkinson's disease assessed as increase in DA level in striatum at 1.25 to 5 mg/kg, ip pretreated with MPTP for 4 hrs followed by incubation with compound for five times at 24 hrs interval and measured after 30 mins by HPLC electrochemical detection method in the presence of L-dopa and benserazide. Type of data set: functional, organism-based. The settings on record: dose 1.25-5 mg/kg, time 24.5 hrs.

Data set [2] can be described thus: AUC (0-t) in Sprague dawley rat at 5 mg/kg, po measured upto 24 hrs. It is filed as ADME, organism-based. Also noted: route oral, dose 5 mg/kg, time <=24. The settings on record: in vivo.
Data set [3] is described as follows: Cmax in Cynomolgus monkey rat at 5 mg/kg, po measured upto 24 hrs. Type of data set: ADME, organism-based, Macaca fascicularis. The note with it: in vivo. Details: route oral, dose 5 mg/kg, time <=24.
For a further data set, the target named is T1, Cytochrome P450 1A2 (Homo sapiens, UniProt P05177).
T1 sequence (P05177 whole entry): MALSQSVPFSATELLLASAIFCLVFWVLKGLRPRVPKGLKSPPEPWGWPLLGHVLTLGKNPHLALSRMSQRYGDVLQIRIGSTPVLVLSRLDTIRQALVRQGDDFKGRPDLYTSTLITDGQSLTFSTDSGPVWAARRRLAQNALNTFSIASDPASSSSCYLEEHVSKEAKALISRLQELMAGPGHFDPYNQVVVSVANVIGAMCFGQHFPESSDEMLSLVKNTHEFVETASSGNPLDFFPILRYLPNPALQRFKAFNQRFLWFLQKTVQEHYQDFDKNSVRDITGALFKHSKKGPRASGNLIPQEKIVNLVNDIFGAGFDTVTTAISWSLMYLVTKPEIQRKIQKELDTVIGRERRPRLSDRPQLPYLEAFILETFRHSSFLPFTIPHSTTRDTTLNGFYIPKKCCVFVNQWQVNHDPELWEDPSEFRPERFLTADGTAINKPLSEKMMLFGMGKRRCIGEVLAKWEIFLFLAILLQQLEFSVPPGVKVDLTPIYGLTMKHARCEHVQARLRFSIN
The data set is described as follows: Inhibition of human CYP1A2 preincubated for 10 min followed by addition of NADPH and measured after 10 min by LC-MS/MS analysis. It is filed as ADME.

The nature of data set [4]: AUC (0-t) in Cynomolgus monkey rat at 5 mg/kg, po measured upto 24 hrs. Type of data set: ADME, organism-based, Macaca fascicularis. Also noted: route oral, dose 5 mg/kg, time <=24. The note with it: in vivo.
A further data set addresses Cytochrome P450 2C19 (Homo sapiens, UniProt P33261). Briefly: Inhibition of human CYP2C19 preincubated for 10 min followed by addition of NADPH and measured after 45 min by LC-MS/MS analysis. Type of data set: ADME.
A short description of data set [5]: Metabolic stability in dog liver microsome assessed as half life at 1 uM measured after 60 min in presence of NADPH by LC-MS/MS analysis. Type of data set: ADME, Canis lupus familiaris. The settings on record: liver microsomes.
Data set [6] in a line: Cmax in Cynomolgus monkey at 1 mg/kg, iv measured upto 24 hrs. Type of data set: ADME, organism-based, Macaca fascicularis. Details: route intravenous, dose 1 mg/kg, time <=24. The settings on record: in vivo.
The nature of data set [7]: Plasma protein binding in human assessed as unbound fraction at 1 uM measured after 5 hrs by LC-MS/MS analysis. Type of data set: ADME, cell-free.
The next data set has as its target Cytochrome P450 3A4 (Homo sapiens, UniProt P08684). Briefly: Inhibition of human CYP3A4 preincubated for 10 min followed by addition of NADPH and measured after 5 min by LC-MS/MS analysis. It is filed as ADME.
Data set [8] in a line: Metabolic stability in human liver microsome assessed as half life at 1 uM measured after 60 min in presence of NADPH by LC-MS/MS analysis. Type of data set: ADME. The note with it: liver microsomes.
A short description of data set [9]: Plasma protein binding in rat assessed as unbound fraction at 1 uM measured after 5 hrs by LC-MS/MS analysis. Type of data set: ADME, cell-free.
The nature of data set [10]: AUC (0-t) in Sprague dawley rat at 1 mg/kg, iv measured upto 24 hrs. Details: route intravenous, dose 1 mg/kg, time <=24. It is filed as ADME, organism-based. The note with it: in vivo.

Structures are written as SMILES. Activity calls are given as the source filed them. No cut-off for these calls is given here. A value given as a limit tells only on which side of the number the result lay.

Sequence of Cytochrome P450 3A4 (P08684 whole entry): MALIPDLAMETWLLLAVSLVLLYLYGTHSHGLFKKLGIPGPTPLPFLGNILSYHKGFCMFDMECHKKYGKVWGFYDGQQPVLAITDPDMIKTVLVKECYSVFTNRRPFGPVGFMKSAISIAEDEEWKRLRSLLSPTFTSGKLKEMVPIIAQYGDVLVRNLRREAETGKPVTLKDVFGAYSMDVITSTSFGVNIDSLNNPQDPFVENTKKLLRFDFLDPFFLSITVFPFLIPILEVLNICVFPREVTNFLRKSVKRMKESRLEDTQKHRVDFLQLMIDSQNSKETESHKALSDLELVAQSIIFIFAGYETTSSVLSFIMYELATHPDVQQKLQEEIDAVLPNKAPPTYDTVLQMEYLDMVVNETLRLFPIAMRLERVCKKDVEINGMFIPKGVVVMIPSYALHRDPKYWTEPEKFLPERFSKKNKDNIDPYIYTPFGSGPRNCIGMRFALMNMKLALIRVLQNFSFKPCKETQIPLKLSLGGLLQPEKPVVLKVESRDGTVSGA
Sequence of Cytochrome P450 2C19 (P33261 whole entry): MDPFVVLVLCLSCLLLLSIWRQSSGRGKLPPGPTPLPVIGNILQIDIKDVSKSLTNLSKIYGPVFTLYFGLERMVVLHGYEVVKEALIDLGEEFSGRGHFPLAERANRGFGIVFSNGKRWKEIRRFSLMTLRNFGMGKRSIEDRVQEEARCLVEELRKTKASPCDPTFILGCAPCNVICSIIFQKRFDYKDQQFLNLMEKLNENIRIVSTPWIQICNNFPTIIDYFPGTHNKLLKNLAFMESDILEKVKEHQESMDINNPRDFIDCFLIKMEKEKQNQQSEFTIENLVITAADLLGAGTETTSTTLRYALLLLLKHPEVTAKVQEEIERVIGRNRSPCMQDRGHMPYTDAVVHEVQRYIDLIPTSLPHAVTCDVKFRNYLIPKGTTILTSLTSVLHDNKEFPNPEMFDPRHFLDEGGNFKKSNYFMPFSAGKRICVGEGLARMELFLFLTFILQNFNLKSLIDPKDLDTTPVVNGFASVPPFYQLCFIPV

As for `NC(=O)[C@@H]1C[C@H](F)CN1Cc1ccc(OCc2cccc(F)c2)cc1`, the area under the curve AUC(0-t) at 24 h in data set [1] is 2120 ng·h/mL; in data set [2], 1400 ng·h/mL; in data set [4] it was 11300 ng·h/mL; in [10], 505 ng·h/mL. Further, the half-inhibitory concentration (IC50) against Cytochrome P450 2C9, against Cytochrome P450 1A2, against Cytochrome P450 2C19 and at Cytochrome P450 3A4 was over 29 µM each time. Also, the outcome with Rattus norvegicus and in the data set with Mus musculus was Active. Further, the Cmax came out at 2280 ng/mL in [3] and 924 ng/mL in [6]. Also, the half-life at 1 µM in data set [5] was found to be 0.851 h; in [8] it was 2.23 h. Further, the fraction unbound at 5 h, 1 µM turned out to be 0.0363 in [7] and 0.0504 in data set [9].

Values taken from ChEMBL document CHEMBL5042493, “Enhancing monoamine oxidase B inhibitory activity via chiral fluorination: Structure-activity relationship, biological evaluation, and molecular docking study” (Eur J Med Chem, 2022).
